Counter-ions that a name gives are not always drawn.
What was measured:
[1] = biological target: isolated recombinant JAK2 kinase domain (Homo sapiens (Human), UniProt O60674); assay: JAK2 enzyme assay (Caliper LabChip, peptide phosphorylation); assay type: biochemical; conditions: 25 μM ATP
[2] = tested on: JAK1-dependent STAT6 phosphorylation downstream of IL-13 stimulation in TF-1 human erythroleukemia cells; assay: JAK1 pathway assay in TF-1 cells (IL-13-pSTAT6, MSD); assay type: cell-based; conditions: Homo sapiens, TF-1, TF-1 cells, read-out: IL13-pSTAT6 EC50_TF-1
Method in brief: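 Compound preincubation lasted 1 hr for BEAS-2B cells in complete growth medium and 30 min for GM-CSF-starved TF-1 cells in serum-free medium. EC50 values were determined.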

[3] = biological target: isolated recombinant JAK1 kinase domain (Homo sapiens (Human), UniProt P23458); assay: JAK1 enzyme assay (Caliper LabChip, peptide phosphorylation); assay type: biochemical; conditions: isolated recombinant JAK1 kinase domain, 25 μM ATP
isolated recombinant JAK1 kinase domain, sequence (P23458 875-1153): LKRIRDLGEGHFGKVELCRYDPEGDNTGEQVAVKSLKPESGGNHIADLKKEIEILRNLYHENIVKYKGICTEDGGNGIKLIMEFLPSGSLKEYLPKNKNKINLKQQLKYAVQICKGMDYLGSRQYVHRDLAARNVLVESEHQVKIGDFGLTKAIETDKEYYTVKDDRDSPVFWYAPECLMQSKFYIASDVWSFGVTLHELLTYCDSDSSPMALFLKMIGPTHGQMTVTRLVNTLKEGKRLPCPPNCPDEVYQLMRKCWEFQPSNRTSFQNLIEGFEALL

isolated recombinant JAK2 kinase domain, sequence (O60674 849-1124): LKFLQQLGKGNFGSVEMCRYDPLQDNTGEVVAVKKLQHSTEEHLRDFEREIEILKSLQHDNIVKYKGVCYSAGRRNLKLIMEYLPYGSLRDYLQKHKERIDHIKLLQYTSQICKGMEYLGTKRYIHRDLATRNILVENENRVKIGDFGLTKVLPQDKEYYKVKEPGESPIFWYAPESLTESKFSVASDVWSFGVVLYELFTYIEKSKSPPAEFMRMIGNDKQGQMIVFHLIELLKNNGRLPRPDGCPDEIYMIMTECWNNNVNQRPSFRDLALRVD

| SMILES | Ki [1] [nM] | EC50 [2] [nM] | Ki [3] [nM] |
| --- | --- | --- | --- |
| O=C(Nc1cn(C2CCN(CCCN3CCS(=O)(=O)CC3)CC2)nc1-c1cc(Cl)ccc1OC(F)F)c1cnn2cccnc12 [Example 161, N-[3-[5-chloro-2-(difluoromethoxy)phenyl]-1-[1-[3-(1,1-dioxo-1,4-thiazinan-4-yl)propyl]-4-piperidyl]pyrazol-4-yl]pyrazolo[1,5-a]pyrimidine-3-carboxamide] | 0.13 | 22.3 | 1.23 |
| CN(CCc1ccccn1)C1CCN(C(=O)Cn2cc(NC(=O)c3cnn4cccnc34)c(-c3cc(Cl)ccc3OC(F)F)n2)CC1 [Example 86, N-[3-[5-chloro-2-(difluoromethoxy)phenyl]-1-[2-[4-[methyl-[2-(2-pyridyl)ethyl]amino]-1-piperidyl]-2-oxo-ethyl]pyrazol-4-yl]pyrazolo[1,5-a]pyrimidine-3-carboxamide] | 1.6 | 25.2 | 0.72 |
| CN(Cc1ccc(C(C)(C)C)cc1)C1CCN(C(=O)Cn2cc(NC(=O)c3cnn4cccnc34)c(-c3cc(Cl)ccc3OC(F)F)n2)CC1 [Example 120, N-[1-[2-[4-[(4-tert-butylphenyl)methyl-methyl-amino]-1-piperidyl]-2-oxo-ethyl]-3-[5-chloro-2-(difluoromethoxy)phenyl]pyrazol-4-yl]pyrazolo[1,5-a]pyrimidine-3-carboxamide] | 0.23 | 118 | 0.3 |
| CCN1C[C@@H]2CN(C(=O)Cn3cc(NC(=O)c4cnn5cccnc45)c(-c4cc(Cl)ccc4OC(F)F)n3)C[C@@H]2C1 [Example 5, Cis pyrazolo[1,5-a]pyrimidine-3-carboxylic acid {3-(5-chloro-2-difluoromethoxyphenyl)-1-[2-(5ethyl-hexahydro-pyrrolo[3,4-c]pyrrol-2-yl)-2-oxoethyl]-1H-pyrazol-4-yl}amide hydrochloride] | 0.78 | 11.1 | 0.84 |
| CN(C)C[C@@H]1CCCN1C(=O)Cn1cc(NC(=O)c2c(N)nn3cccnc23)c(-c2cc(Cl)ccc2OC(F)F)n1 [Example 79, 2-amino-N-[3-[5-chloro-2-(difluoromethoxy)phenyl]-1-[2-[(2S)-2-[(dimethylamino)methyl]pyrrolidin-1-yl]-2-oxo-ethyl]pyrazol-4-yl]pyrazolo[1,5-a]pyrimidine-3-carboxamide] | 2.11 | 158 | 4.54 |
| CN(CC1(C#N)CCCCC1)C1CCN(C(=O)Cn2cc(NC(=O)c3cnn4cccnc34)c(-c3cc(Cl)ccc3OC(F)F)n2)CC1 [Example 114, N-[3-[5-chloro-2-(difluoromethoxy)phenyl]-1-[2-[4-[(1-cyanocyclohexyl)methyl-methyl-amino]-1-piperidyl]-2-oxo-ethyl]pyrazol-4-yl]pyrazolo[1,5-a]pyrimidine-3-carboxamide] | 1.34 | 15.3 | 0.52 |
| O=C(Nc1cn(C2CCNCC2)nc1-c1cc(Cl)ccc1OC(F)F)c1cnn2cccnc12 [Example 1, Pyrazolo[1,5-a]pyrimidine-3-carboxylic acid [3-(5-chloro-2-difluoromethoxyphenyl)-1-piperidin-4-yl-1H-pyrazol-4-yl]amide hydrochloride] | 0.46 | 21.1 | 1.62 |
| O=C(Nc1cn(CC(=O)N2C[C@H]3CN(CCCOC(=O)N4CCOCC4)C[C@H]3C2)nc1-c1cc(Cl)ccc1OC(F)F)c1cnn2cccnc12 [Example 51, 3-[(3aR,6aS)-5-[2-[3-[5-chloro-2-(difluoromethoxy)phenyl]-4-(pyrazolo[1,5-a]pyrimidine-3-carbonylamino)pyrazol-1-yl]acetyl]-1,3,3a,4,6,6a-hexahydropyrrolo[3,4-c]pyrrol-2-yl]propyl morpholine-4-carboxylate] | 1.06 | 77.9 | 1.09 |
| Nc1nn2cccnc2c1C(=O)Nc1cn(CC(=O)N2C[C@H]3CN(CC4CCC(F)(F)CC4)C[C@H]3C2)nc1-c1cc(Cl)ccc1OC(F)F [Example 58, N-[1-[2-[(3aS,6aR)-2-[(4,4-difluorocyclohexyl)methyl]-1,3,3a,4,6,6a-hexahydropyrrolo[3,4-c]pyrrol-5-yl]-2-oxo-ethyl]-3-[5-chloro-2-(difluoromethoxy)phenyl]pyrazol-4-yl]-2-amino-pyrazolo[1,5-a]pyrimidine-3-carboxamide] | 0.33 | 25.6 | 0.6 |
| CNC(=O)CCN1CCC(n2cc(NC(=O)c3cnn4cccnc34)c(-c3cc(Cl)ccc3OC(F)F)n2)CC1 [Example 160, N-[3-[5-chloro-2-(difluoromethoxy)phenyl]-1-[1-[3-(methylamino)-3-oxo-propyl]-4-piperidyl]pyrazol-4-yl]pyrazolo[1,5-a]pyrimidine-3-carboxamide] | 0.39 | 19.3 | 3.02 |

The next lines start with the values.

| Ki [1] [nM] | EC50 [2] [nM] | Ki [3] [nM] | SMILES |
| --- | --- | --- | --- |
| 0.72 | 71 | 1.17 | CN1CCN(c2ccc(-c3nc(-c4cc(Cl)ccc4OC(F)F)c(NC(=O)c4cnn5cccnc45)s3)cc2)CC1 [Example 258, N-[4-[5-chloro-2-(difluoromethoxy)phenyl]-2-[4-(4-methylpiperazin-1-yl)phenyl]thiazol-5-yl]pyrazolo[1,5-a]pyrimidine-3-carboxamide] |
| 0.57 | 48.8 | 1.08 | CN1CCCN(C(=O)Cn2cc(NC(=O)c3c(N)nn4cccnc34)c(-c3cc(Cl)ccc3OC(F)F)n2)CC1 [Example 246, 2-amino-N-[3-[5-chloro-2-(difluoromethoxy)phenyl]-1-[2-(4-methyl-1,4-diazepan-1-yl)-2-oxo-ethyl]pyrazol-4-yl]pyrazolo[1,5-a]pyrimidine-3-carboxamide] |
| 0.95 | 92 | 1.31 | O=C(Nc1sc(-c2ccc(CN3CC(F)C3)cc2)nc1-c1cc(Cl)ccc1OC(F)F)c1cnn2cccnc12 [Example 256, N-[4-[5-chloro-2-(difluoromethoxy)phenyl]-2-[4-[(3-fluoroazetidin-1-yl)methyl]phenyl]thiazol-5-yl]pyrazolo[1,5-a]pyrimidine-3-carboxamide] |
| 0.18 | 15.4 | 0.59 | NC(=O)CCCN1CCC(n2cc(NC(=O)c3c(N)nn4cccnc34)c(-c3cc(Cl)ccc3OC(F)F)n2)CC1 [Example 162, 2-amino-N-[1-[1-(4-amino-4-oxo-butyl)-4-piperidyl]-3-[5-chloro-2-(difluoromethoxy)phenyl]pyrazol-4-yl]pyrazolo[1,5-a]pyrimidine-3-carboxamide] |
| 1.08 | 33.5 | 1.38 | O=C(Nc1sc(N2CCN(CC(F)(F)F)CC2)nc1-c1cc(Cl)ccc1OC(F)F)c1cnn2cccnc12 [Example 208, N-[4-[5-chloro-2-(difluoromethoxy)phenyl]-2-[4-(2,2,2-trifluoroethyl)piperazin-1-yl]thiazol-5-yl]pyrazolo[1,5-a]pyrimidine-3-carboxamide] |
| 0.2 | 12.3 | 0.71 | Nc1nn2cccnc2c1C(=O)Nc1cn([C@H]2CCNC2)nc1-c1cc(Cl)ccc1OC(F)F [Example 186, 2-amino-N-[3-[5-chloro-2-(difluoromethoxy)phenyl]-1-[(3S)-pyrrolidin-3-yl]pyrazol-4-yl]pyrazolo[1,5-a]pyrimidine-3-carboxamide] |

From patent US9346815B2, “5-chloro-2-difluoromethoxyphenyl pyrazolopyrimidine compounds, compositions and methods of use thereof” (Genentech, Inc., priority 2014, dated 2016)
